Test results from patent publication US20210353751A1, “COMBINATION THERAPIES FOR TREATMENT OF INFLAMMATORY DISEASES” (The Regents of The University of California, priority 2018, published 2021).
Like-named read-outs stand apart in the source and are kept apart here.

Experiments:
Newly-diabetic NOD mice [1] = conditions: oral GABA at 20 mg/ml, monotherapy; cited from earlier work
[2] = after intravenous or intraperitoneal injection; cited from earlier work
Newly-diabetic NOD mice [3] = assay: Anti-CD3 plus GABA in newly-diabetic NOD mice: glycemia and islet staining (insulin/glucagon) after three months; assay type: in vivo
Protocol: Newly-diabetic NOD mice (blood glucose 220-300 mg/dL on two consecutive days) were treated with anti-CD3 (non-Fc binding anti-CD3ε F(ab′)2 from BioExpress, 40 μg/day intravenously for 5 consecutive days) and immediately began one of the following additional treatments: • (1) control PBS IP; • (2) GABA (dissolved in PBS, 250 μg/kg, IP); • (3) control plain drinking water; or • (4a) drinking water containing 6 mg/ml GABA or (4b) drinking water containing 20 mg/ml GABA. Mice drink approximately 4 ml/day, so Group 4a consumed approximately 24 mg/day of GABA and Group 4b consumed approximately 80 mg/day of GABA.
Three months after beginning treatment, pancreata from the mice were removed and sections (4 μm) were stained with Alexa Fluor 647-anti-glucagon (shown in red in the Figures) and Alexa-488 conjugated with anti-insulin (shown in green in the Figures), followed by staining with 4′,6-diamidino-2-phenylindole (“DAPI”). Images were captured using a fluorescent microscope and at least 30 islets from each group of mice (n=4) were analyzed. Data are representative islet images or expressed as the mean±standard deviation (“SD”) of each group.

[4] = tested on: splenic Tregs of SJL mice; conditions: homotaurine monotherapy, EAE model; cited from earlier work
[5] = tested on: PLN mononuclear cells of NOD mice; assay: Pancreatic lymph node (PLN) mononuclear cell analysis; assay type: in vivo; conditions: treated at 15-18 weeks in age, studied 3 weeks later; monotherapies relative to control, combination relative to monotherapies
Excerpt: This increase was significant for CD4^+CD25^+Foxp3^+ cells in comparison to homotaurine monotherapy. Thus, combined therapy also elevated the average frequencies of CD4^+ and CD8^+ Tregs within the target tissue/PLN of NOD mice

[6] = tested on: newly severely hyperglycemic NOD mice; assay: Combined GABA-R agonist and low-dose anti-CD3 treatment in severely hyperglycemic NOD mice (remission/relapse); assay type: in vivo; conditions: homotaurine alone 0.25 mg/ml; severe hyperglycemia at entry
Protocol: The inventors hypothesized that combining GABA-Receptor activation with an immunosuppressant may allow effective disease reversal using lower dosages of the immunosuppressant and thereby reduce the possibility of side effects. The inventors chose to test anti-CD3 since it is a prototypic immunosuppressant that is in clinical use. In pilot studies, the inventors developed a low-dose anti-CD3 treatment protocol (35 μg anti-CD3 on three consecutive days), which reversed hyperglycemia in about a third of newly-diabetic NOD mice with severe hyperglycemia at entry into the study (blood glucose >350 mg/dL). The inventors then treated newly severely hyperglycemic NOD mice with low-dose anti-CD3 together with homotaurine (0.25 mg/ml), GABA (6 mg/ml), or plain water.
For these studies, the inventors initiated treatment when the NOD mice had blood glucose levels >350 mg/dL. […] Treated mice with two consecutive blood glucose readings below 250 mg/dL were considered to be in remission after which two consecutive blood glucose readings >250 mg/dL was considered to be disease relapse […]
Treatment was initiated when the NOD mice had blood glucose levels >350 mg/dL. […] Treated mice with two consecutive blood glucose readings below 250 mg/dL were considered to be in remission after which two consecutive blood glucose readings >250 mg/dL was considered to be disease relapse.

GABA-R = conditions: relative to GABA; cited from earlier work
Newly-diabetic NOD mice [7] = assay: Homotaurine monotherapy dose-finding study in newly-diabetic NOD mice; assay type: in vivo
Protocol: To determine whether homotaurine had therapeutic potential in NOD mice, the inventors performed a dose finding study with homotaurine dissolved in the drinking water at 0, 0.08, 0.25 or 0.75 mg/ml. […] Newly-diabetic NOD mice that were untreated rapidly progressed to severe hyperglycemia within 1 week. […] Thus, oral homotaurine monotherapy at an appropriate dose can quickly correct hyperglycemia and maintain normoglycemia for a short period, but most of the treated mice become hyperglycemic again.
A dose finding study was performed with homotaurine dissolved in the drinking water at 0, 0.08, 0.25 or 0.75 mg/ml to determine the therapeutic potential in NOD mice. […] Newly-diabetic NOD mice that were untreated rapidly progressed to severe hyperglycemia within 1 week. […] Thus, oral homotaurine monotherapy at an appropriate dose can quickly correct hyperglycemia but most of the treated mice become hyperglycemic again within a short period.
NOD mice (Taconic Farms, Germantown) were housed in a specific pathogen-free facility. Only female NOD mice were used.
Blood glucose levels were monitored 2-3 times weekly using a One Touch Ultrasensitive monitor and those with two consecutive daily blood glucose levels between 250-300 mg/dL were entered into the study. The mice were randomly assigned to groups that continually received water containing 0, 0.08, 0.25, or 0.75 mg/ml homotaurine, pH 7.2 through their drinking water. Each mouse consumed on average about 4-5 ml of water per day. Water bottles were changed every five days. Treated mice with two consecutive blood glucose readings below 250 mg/dL were considered to be in remission after which two consecutive blood glucose readings >250 mg/dL was considered disease relapse.

[8] = homotaurine 0.08 mg/ml in drinking water
[9] = homotaurine 0.25 mg/ml in drinking water

SMILES | restoration of normoglycemia (Newly-diabetic NOD mice [1]) | time at which mice became hyperglycemic again (Newly-diabetic NOD mice [1]) | half-life in plasma [2] | numbers of bihormonal cells versus groups treated with lower dosages of GABA (Newly-diabetic NOD mice [3]; GABA 20 mg/ml in drinking water with anti-CD3) | frequency of bihormonal glucagon+ insulin+ cells versus control groups (Newly-diabetic NOD mice [3]; all GABA-treated groups (250 μg/kg IP, 6 or 20 mg/ml in water), all with anti-CD3) | increase in the frequency of insulin+ cells per islet relative to control groups who received anti-CD3 alone (Newly-diabetic NOD mice [3]; highest GABA dose (20 mg/ml in drinking water) with anti-CD3) | frequency of splenic CD4+Foxp3+ Tregs [4] | frequency of splenic CD8+CD122+PD-1+ Tregs [4] | frequency of CD4+CD25+Foxp3+ cells in the PLN [5] | frequency of CD8+CD122+PD-1+ cells in the PLN [5] | half-life in plasma compared with GABA [2] | induction of remission [6] | affinity for GABA-R, higher than GABA (GABA-R) | water or food consumption or body weights over the course of the study (Newly-diabetic NOD mice [7]; homotaurine 0, 0.08, 0.25 or 0.75 mg/ml in drinking water) | delay of disease progression (mean) (Newly-diabetic NOD mice [7]; [8]) | effect on disease progression (Newly-diabetic NOD mice [7]; [8]) | restoration of normoglycemia (Newly-diabetic NOD mice [7]; [9]) | time at which most mice became hyperglycemic again (Newly-diabetic NOD mice [7]; [9]) | effect on disease progression (Newly-diabetic NOD mice [7]; homotaurine 0.75 mg/ml in drinking water, on average less effective than 0.25 mg/ml) | mean remission period for all mice (Newly-diabetic NOD mice [7]; homotaurine monotherapy 0.25 mg/ml in drinking water)
NCCCC(=O)O [GABA, γ-aminobutyric acid] | restored normoglycemia in all mice | generally within five weeks | 20 min | greater numbers of bihormonal cells | significantly increased | 26 fold |  |  |  |  |  |  |  |  |  |  |  |  |  | 
NCCCS(=O)(=O)O [homotaurine] |  |  |  |  |  |  | increased the frequency | increased the frequency | significantly increased | significantly increased | longer half-life than GABA | unable to induce remission | > 3 fold | None of the mouse groups under study differed | 2.2 weeks | delayed disease progression for a very brief period | restored normoglycemia in all mice | ≤ 6 weeks | some delay in disease progression | 14 weeks
